Source: patent US20250368649A1, “TETRAHYDROPYRIDOPYRIMIDINE PAN-KRAS INHIBITORS” (Mirati Therapeutics, Inc., priority 2022, published 2025)

What was measured:
H460 cells = assay: Inhibition of KRas-mediated phosphorylation of ERK (Cisbio HTRF pERK), H460 cells; type: cell-based; settings: Homo sapiens; for inhibition at 0.1 µM: NCI-H460, single point at 100 nM, 3 hrs compound incubation
KRas G12D = KRas G12D (Homo sapiens, UniProt P01116, G12D); assay: biochemical; settings: Binding to KRas (IC50 nM) G12D, TR-FRET displacement, KRas G12D
KRas G12D, sequence (P01116 1-169 isoform P01116-2 G12D): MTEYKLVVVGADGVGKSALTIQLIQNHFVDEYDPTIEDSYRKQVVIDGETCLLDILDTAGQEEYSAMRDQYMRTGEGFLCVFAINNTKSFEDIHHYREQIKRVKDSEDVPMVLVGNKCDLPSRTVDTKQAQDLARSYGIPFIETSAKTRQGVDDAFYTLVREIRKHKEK

ASPC1 cells = assay: Inhibition of KRas-mediated phosphorylation of ERK (Cisbio HTRF pERK), ASPC1 cells; type: cell-based; settings: Homo sapiens, AsPC-1 cells; for IC50: ASPC1, 3 h, 3 hr compound incubation, Cisbio pERK HTRF
PSN1 cells = assay: Inhibition of KRas-mediated phosphorylation of ERK (Cisbio HTRF pERK), PSN1 cells; type: cell-based; settings: Homo sapiens, PSN1, 3 h, 3 hour compound incubation, Cisbio pERK HTRF
Protocol: (§1) Inhibition of KRas Phosphorylation of ERK (HTRF) by Exemplary Compounds of Formula (I) Cisbio HTRF Advanced pERK Assay Catalog #64AERPEH • Cells: MKN1, PSN1 • Procedure: • Day 1: Seed 6,000 cells/well -25 µl/well in 384-well white solid bottom plate; RPM1_10% FBS.

MKN1 cells = assay: Inhibition of KRas-mediated phosphorylation of ERK (Cisbio HTRF pERK), MKN1 cells; type: cell-based; settings: Homo sapiens, MKN-1, 3 hour compound incubation, Cisbio pERK HTRF
Protocol: as §1

KRas G12R = KRas G12R (Homo sapiens, UniProt P01116, G12R); assay: biochemical; settings: Binding to KRas (IC50 nM) G12R, TR-FRET displacement, KRas G12R
KRas G12R, sequence (P01116 1-169 isoform P01116-2 G12R): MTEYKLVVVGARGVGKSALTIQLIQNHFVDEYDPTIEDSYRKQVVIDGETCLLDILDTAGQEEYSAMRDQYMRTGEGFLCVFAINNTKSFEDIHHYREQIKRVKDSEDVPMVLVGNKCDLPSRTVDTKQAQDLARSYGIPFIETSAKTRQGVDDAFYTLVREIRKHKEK

KRas G12V = KRas G12V (Homo sapiens, UniProt P01116, G12V); assay: biochemical; settings: Binding to KRas (IC50 nM) G12V, TR-FRET displacement, KRas G12V
KRas G12V, sequence (P01116 1-169 isoform P01116-2 G12V): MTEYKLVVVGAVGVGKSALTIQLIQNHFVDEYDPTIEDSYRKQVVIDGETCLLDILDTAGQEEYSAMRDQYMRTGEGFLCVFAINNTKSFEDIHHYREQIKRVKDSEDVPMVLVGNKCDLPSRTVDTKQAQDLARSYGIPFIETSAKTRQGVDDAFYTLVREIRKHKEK

A549 cells = assay: Inhibition of KRas-mediated phosphorylation of ERK (Cisbio HTRF pERK), A549 cells; type: cell-based; settings: Homo sapiens; for IC50: A549, 3 h, 3 hr compound incubation, Cisbio pERK HTRF; for inhibition at 0.1 µM: single point at 100 nM, 3 hrs compound incubation
HCT116 cells = assay: Inhibition of KRas-mediated phosphorylation of ERK (Cisbio HTRF pERK), HCT116 cells; type: cell-based; settings: Homo sapiens; for inhibition at 0.1 µM: HCT-116, single point at 100 nM, 3 hrs compound incubation; for IC50: HCT-116, 3 h, 3 hr compound incubation, Cisbio pERK HTRF
H727 cells = assay: Inhibition of KRas-mediated phosphorylation of ERK (Cisbio HTRF pERK), H727 cells; type: cell-based; settings: Homo sapiens; for IC50: NCI-H727, 3 h, 3 hr compound incubation, Cisbio pERK HTRF
H358 cells = assay: Inhibition of KRas-mediated phosphorylation of ERK (Cisbio HTRF pERK), H358 cells; type: cell-based; settings: Homo sapiens, NCI-H358, single point at 100 nM, 3 hrs compound incubation

Compound	inhibition at 0.1 µM (H460 cells) [%]	IC50 (KRas G12D) [nM]	IC50 (ASPC1 cells) [nM]	IC50 (PSN1 cells) [nM]	IC50 (MKN1 cells) [nM]	IC50 (KRas G12R) [nM]	IC50 (KRas G12V) [nM]	IC50 (A549 cells) [nM]	inhibition at 0.1 µM (HCT116 cells) [%]	IC50 (H727 cells) [nM]	inhibition at 0.1 µM (ASPC1 cells; ASPC1, single point at 100 nM, 3 hrs compound incubation) [%]	inhibition at 0.1 µM (H358 cells) [%]	inhibition at 0.1 µM (A549 cells) [%]	inhibition at 0.1 µM (H727 cells; NCI-H727, single point at 100 nM, 3 hrs compound incubation) [%]	IC50 (H460 cells; NCI-H460, 3 h, 3 hr compound incubation, Cisbio pERK HTRF) [nM]	IC50 (HCT116 cells) [nM]
CCc1c(F)ccc2cc(O)cc(N3CCc4c(nc(OC[C@@]56CCCN5C[C@H](F)C6)nc4N4CCCn5nc(NC(C)=O)cc5C4)C3)c12 [Example 356, N-(5-(7-(8-ethyl-7-fluoro-3-hydroxynaphthalen-1-yl)-2-(((2R,7aS)-2-fluorohexahydro-1H-pyrrolizin-7a-yl)methoxy)-5,6,7,8-tetrahydropyrido[3,4-d]pyrimidin-4-yl)-5,6,7,8-tetrahydro-4H-pyrazolo[1,5-a][1,4]diazepin-2-yl)acetamide]	28	< 2	262	> 10000	216	3	3	524	-2	284						
CCc1c(F)ccc2cc(O)cc(N3CCc4c(nc(OC[C@@]56CCCN5C[C@H](F)C6)nc4N4CCCn5nc(NS(C)(=O)=O)cc5C4)C3)c12 [Example 364, N-(5-(7-(8-ethyl-7-fluoro-3-hydroxynaphthalen-1-yl)-2-(((2R,7aS)-2-fluorohexahydro-1H-pyrrolizin-7a-yl)methoxy)-5,6,7,8-tetrahydropyrido[3,4-d]pyrimidin-4-yl)-5,6,7,8-tetrahydro-4H-pyrazolo[1,5-a][1,4]diazepin-2-yl)methanesulfonamide]	13	2	997	> 10000	456	< 2	3		10	716						
CCCCN(C)C(=O)c1cc2n(n1)CCCN(c1nc(OC[C@@]34CCCN3C[C@H](F)C4)nc3c1CCN(c1cc(O)cc4ccc(F)c(CC)c14)C3)C2 [Example 496, N-butyl-5-(7-(8-ethyl-7-fluoro-3-hydroxynaphthalen-1-yl)-2-(((2R,7aS)-2-fluorohexahydro-1H-pyrrolizin-7a-yl)methoxy)-5,6,7,8-tetrahydropyrido[3,4-d]pyrimidin-4-yl)-N-methyl-5,6,7,8-tetrahydro-4H-pyrazolo[1,5-a][1,4]diazepine-2-carboxamide]		< 2	10	5350	16.3	< 2	< 2			19	96	97	95	71		
CCc1c(F)ccc2cc(O)cc(N3CCc4c(nc(OCC5(CN(C)C)CC5)nc4N4CCCn5nncc5C4)C3)c12 [Example 430, 4-(4-(7,8-dihydro-4H-[1,2,3]triazolo[1,5-a][1,4]diazepin-5(6H)-yl)-2-((1-((dimethylamino)methyl)cyclopropyl)methoxy)-5,6-dihydropyrido[3,4-d]pyrimidin-7(8H)-yl)-5-ethyl-6-fluoronaphthalen-2-ol]		< 2	134	> 10000	94.9	< 2	< 2	592		269					439	1030
CCc1c(F)ccc2cc(O)cc(N3CCc4c(nc(OC[C@@]56CCCN5C[C@H](F)C6)nc4N4CCCn5nc(CNC(=O)N(C)C)cc5C4)C3)c12 [Example 354, 3-((5-(7-(8-ethyl-7-fluoro-3-hydroxynaphthalen-1-yl)-2-(((2R,7aS)-2-fluorohexahydro-1H-pyrrolizin-7a-yl)methoxy)-5,6,7,8-tetrahydropyrido[3,4-d]pyrimidin-4-yl)-5,6,7,8-tetrahydro-4H-pyrazolo[1,5-a][1,4]diazepin-2-yl)methyl)-1,1-dimethylurea]	8	3	1060	> 10000	814	5	4		11	1220						
CCc1c(F)ccc2cc(O)cc(N3CCc4c(nc(OC[C@@]56CCCN5C[C@H](F)C6)nc4N4CCCc5nc[nH]c5C4)C3)c12 [Example 357, 4-(4-(7,8-dihydroimidazo[4,5-c]azepin-5(3H,4H,6H)-yl)-2-(((2R,7aS)-2-fluorohexahydro-1H-pyrrolizin-7a-yl)methoxy)-5,6-dihydropyrido[3,4-d]pyrimidin-7(8H)-yl)-5-ethyl-6-fluoronaphthalen-2-ol]	12	11	4410	> 10000	2600	7	6		-20	1830						
CCc1c(F)ccc2cc(O)cc(N3CCc4c(nc(OC[C@@]56CCCN5C[C@H](F)C6)nc4N4CCCC(O)(C(N)=O)C4)C3)c12 (stereo partly drawn) [Example 368, 1-(7-(8-ethyl-7-fluoro-3-hydroxynaphthalen-1-yl)-2-(((2R,7aS)-2-fluorohexahydro-1H-pyrrolizin-7a-yl)methoxy)-5,6,7,8-tetrahydropyrido[3,4-d]pyrimidin-4-yl)-3-hydroxypiperidine-3-carboxamide]	31	10	666	7050	69.1	6	5		1	489						
CCc1c(F)ccc2cc(O)cc(N3CCc4c(nc(OC[C@@]56CCCN5C[C@H](F)C6)nc4N4CCCc5n[nH]cc5C4)C3)c12 [Example 361, 4-(4-(7,8-dihydropyrazolo[4,3-c]azepin-5(2H,4H,6H)-yl)-2-(((2R,7aS)-2-fluorohexahydro-1H-pyrrolizin-7a-yl)methoxy)-5,6-dihydropyrido[3,4-d]pyrimidin-7(8H)-yl)-5-ethyl-6-fluoronaphthalen-2-ol]	1	14	636	> 10000	401	5	6		-11	466						
CCc1c(F)ccc2cc(O)cc(N3CCc4c(nc(OC[C@@]56CCCN5C[C@H](F)C6)nc4N4CCCn5nc(C(=O)O)cc5C4)C3)c12 [Example 389, 5-(7-(8-ethyl-7-fluoro-3-hydroxynaphthalen-1-yl)-2-(((2R,7aS)-2-fluorohexahydro-1H-pyrrolizin-7a-yl)methoxy)-5,6,7,8-tetrahydropyrido[3,4-d]pyrimidin-4-yl)-5,6,7,8-tetrahydro-4H-pyrazolo[1,5-a][1,4]diazepine-2-carboxylic acid]		< 2	492	> 10000	54.8	< 2	< 2			214		23	-36			> 10000
Oc1cc(N2CCc3c(nc(OC[C@@]45CCCN4C[C@H](F)C5)nc3N3CCCC4(CCSC4)C3)C2)c2c(Cl)c(F)ccc2c1 (stereo partly drawn) [Example 464, 5-chloro-6-fluoro-4-(2-(((2R,7aS)-2-fluorohexahydro-1H-pyrrolizin-7a-yl)methoxy)-4-(2-thia-7-azaspiro[4.5]decan-7-yl)-5,6-dihydropyrido[3,4-d]pyrimidin-7(8H)-yl)naphthalen-2-ol]	-24	9	1000	> 10000	676	12	8		14	1180						
CCc1c(F)ccc2cc(O)cc(N3CCc4c(nc(OC[C@@]56CCCN5C[C@H](F)C6)nc4N4CCCn5nc(N(C)C(C)=O)cc5C4)C3)c12 [Example 355, N-(5-(7-(8-ethyl-7-fluoro-3-hydroxynaphthalen-1-yl)-2-(((2R,7aS)-2-fluorohexahydro-1H-pyrrolizin-7a-yl)methoxy)-5,6,7,8-tetrahydropyrido[3,4-d]pyrimidin-4-yl)-5,6,7,8-tetrahydro-4H-pyrazolo[1,5-a][1_4]diazepin-2-yl)-N-methylacetamide]	18	3	597	> 10000	417	9	6		-28	562						
